Ten compounds from ChEMBL document CHEMBL5512660, “Synthesis of LAVR-289, a new [(Z)-3-(acetoxymethyl)-4-(2,4-diaminopyrimidin-6-yl)oxy-but-2-enyl]phosphonic acid prodrug with pronounced antiviral activity against DNA viruses” (Eur J Med Chem, 2024) can be followed below.

The nature of data set [1]: Cytotoxicity against human HEL cells assessed as microscopically detectable alterations in cell morphology measured after 24 hrs. It counts as toxicity, cell-based. As to conditions: read-out: MCC50.
Data set [2] deals with Human alphaherpesvirus 2. The experiment in a line: Antiviral activity against human herpes virus type 2 strain 07/1 infected in human HEL cells assessed as reduction in plaque formation measured after 3 days. In kind it is functional, organism-based. As to conditions: Human alphaherpesvirus 2, 07/1, HEL, 72 h.
The test system of data set [3] is Human alphaherpesvirus 1. The experiment in a line: Antiviral activity against thymidine-kinase expressing human herpes virus type 1 KOS infected in human HEL cells assessed as reduction in plaque formation measured after 3 days. It counts as functional, organism-based. Conditions: Human alphaherpesvirus 1, KOS, 72 h.
The nature of data set [4]: Cytostatic activity against human HEL cells assessed as reduction in cell growth measured after 24 hrs. It counts as toxicity, cell-based.
In data set [5] the test system is Vaccinia virus. The experiment in a line: Antiviral activity against Vaccinia virus […] infected in human HEL cells assessed as reduction in plaque formation measured after 3 days. In kind it is functional, organism-based. Conditions: Orthopoxvirus vaccinia, 72 h.
Data set [6] has as its system Human alphaherpesvirus 1. The experiment in a line: Antiviral activity against thymidine-kinase deficient acyclovir-resistant human herpes virus type 1 infected in human HEL cells assessed as reduction in plaque formation measured after 3 days. In kind it is functional, organism-based. As to conditions: Human alphaherpesvirus 1, HEL, 72 h.
Data set [7] has as its system Human alphaherpesvirus 3. The data set is described as follows: Antiviral activity against thymidine-kinase deficient acyclovir-resistant Varicella zoster virus strain 07/1 infected in human HEL cells assessed as reduction in plaque formation measured after 3 days. In kind it is functional, organism-based. Conditions: Human alphaherpesvirus 3, 07/1, HEL, 72 h.
Data set [8] relates to Human alphaherpesvirus 3. The data set is described as follows: Antiviral activity against thymidine-kinase expressing Varicella zoster virus wild type strain OKA infected in human HEL cells assessed as reduction in plaque formation measured after 3 days. As to conditions: Human alphaherpesvirus 3, OKA, 72 h. In kind it is functional, organism-based.
For data set [9], the system named is Cytomegalovirus. The data set is described as follows: Antiviral activity against human cytomegalovirus strain Davis infected in human HEL cells assessed as reduction in virus-induced cytopathic effect measured after 3 days. In kind it is functional, organism-based. Conditions: Human betaherpesvirus 5, Davis, 72 h. In general terms: Cytopathic effects are the visible damage that an infection or toxin causes in cultured cells.

Data set [10] relates to Cytomegalovirus. The data set is described as follows: Antiviral activity against human cytomegalovirus strain AD-169 infected in human HEL cells assessed as reduction in virus-induced cytopathic effect measured after 3 days. Conditions: Human betaherpesvirus 5, AD-169, HEL, 72 h. It counts as functional, organism-based.
Data set [11] can be described thus: Selectivity index, ratio of CC50 for human HEL cells to EC50 for Vaccinia virus […]. In kind it is toxicity. As to conditions: read-out: Selectivity Index.
Data set [12] in a line: Selectivity index, ratio of CC50 for human HEL cells to EC50 for thymidine-kinase deficient acyclovir-resistant human herpes virus type 1. In kind it is toxicity. As to conditions: read-out: Selectivity Index.
Data set [13] in a line: Selectivity index, ratio of CC50 for human HEL cells to EC50 for thymidine-kinase deficient acyclovir-resistant Varicella zoster virus. In kind it is toxicity. Conditions: read-out: Selectivity Index.
Data set [14] has as its system Human alphaherpesvirus 3. The experiment in a line: Antiviral activity against thymidine-kinase deficient acyclovir-resistant Varicella zoster virus strain YS/R infected in human HEL cells assessed as reduction in plaque formation measured after 3 days. It counts as functional, organism-based. As to conditions: Human alphaherpesvirus 3, YS/R, 72 h.
For data set [15], the system named is Human alphaherpesvirus 3. The experiment in a line: Antiviral activity against thymidine-kinase expressing Varicella zoster virus wild type strain YS infected in human HEL cells assessed as reduction in plaque formation measured after 3 days. It counts as functional, organism-based. Conditions: Human alphaherpesvirus 3, YS, 72 h.

With `CC(=O)OC/C(=C\CP(=O)(OCOC(=O)OC(C)C)OCOC(=O)OC(C)C)COc1cc(N)nc(N)n1`, the MCC at 24 h in data set [1] is over 100 µM. Moreover, the EC50 (usually the concentration at which the effect is half-maximal) in data set [2] worked out at 350 nM; in [3], 600 nM; in data set [5], 4100 nM; in data set [6], 400 nM; in data set [7], 220 nM; in [8], 90 nM. The CC50 (commonly the concentration giving 50% cytotoxicity) at 24 h in data set [4] was determined as 15400 nM.

`CC(C)OC(=O)OCOP(=O)(C/C=C/COc1cc(N)nc(N)n1)OCOC(=O)OC(C)C`: in [1], the MCC at 24 h was over 100 µM. The half-maximal effective concentration (EC50) in data set [2] is 1800 nM; in data set [3] it was 3750 nM; in data set [6] it was 5750 nM; in [9] it was 36600 nM; in data set [7] it was 1250 nM; in data set [8] it was 860 nM. In addition, in [10], the EC50 is 44700 nM. Further, the 50% cytotoxic concentration (CC50) at 24 h in data set [4] is over 100000 nM.

Regarding `CCCCCCCCCCCCCCCCOCCCOP(=O)(C/C=C(\COC(C)=O)COc1cc(N)nc(N)n1)OCOC(=O)OC(C)C` (configuration not stated), the MCC at 24 h in data set [1] is 100 µM. Moreover, the EC50 was 15 nM in [2]; 430 nM in [3]; 50 nM in [5]; 9 nM in [6]; 18 nM in data set [7]; 4 nM in data set [8]. The 50% effective concentration (EC50) in [10] was 21 nM. The selectivity ratio was 46 in data set [11], 273 in data set [12] and 129 in [13]. The CC50 at 24 h in [4] was 2320 nM.

Turning to `Nc1nc2c(ncn2COC(CO)CO)c(=O)[nH]1` [GANCICLOVIR], the MCC at 24 h in data set [1] was over 350 µM. Moreover, the 50% effective concentration (EC50) in [2] was 60 nM; in [5], over 100000 nM; in data set [10], 7500 nM. In data set [4], the 50% cytotoxic concentration (CC50) at 24 h came out at 130000 nM.

As for `O=c1[nH]c(=O)n([C@H]2C[C@H](O)[C@@H](CO)O2)cc1/C=C/Br` [BRIVUDINE], the MCC at 24 h in data set [1] was over 150 µM. Moreover, the cytotoxic concentration (CC50) at 24 h in [4] was over 150000 nM. In addition, the concentration for a half-maximal effect (EC50) in data set [5] was 5800 nM; in [8], 9 nM; in [14] it was 85000 nM.

With `CC(C)(C)C(=O)OCOP(=O)(C/C=C/COc1cc(N)nc(N)n1)OCOC(=O)C(C)(C)C`, the MCC at 24 h in [1] was over 100 µM. Further, the EC50 came out at 13400 nM in data set [2]; 13400 nM in data set [3]; 2400 nM in data set [15]; 32500 nM in data set [5]; 13400 nM in data set [6]; 44700 nM in data set [9]. In addition, the EC50 in [7] came to 1400 nM; in data set [8] it was 800 nM; in data set [14] it was 1700 nM; in data set [10], 44700 nM. Moreover, in [4], the cytotoxic concentration (CC50) at 24 h is 5100 nM.

`Nc1ccn(C[C@@H](CO)OCP(=O)(O)O)c(=O)n1` [CIDOFOVIR ANHYDROUS]: the MCC at 24 h in data set [1] was over 350 µM. The selectivity ratio in [11] amounted to 2. For the same compound, in data set [4], the cytotoxic concentration (CC50) at 24 h is 64000 nM. Further, the concentration for a half-maximal effect (EC50) turned out to be 29000 nM in [5], 3800 nM in data set [6] and 730 nM in data set [10].

On to `CCCCCCCCCCCCCCCCOCCCOP(=O)(C/C=C/COc1cc(N)nc(N)n1)OCOC(=O)OC(C)C` (configuration not stated), for which, in data set [1], the MCC at 24 h was found to be 100 µM. Further, the EC50 in data set [2] is 39000 nM; in data set [3], 39000 nM; in data set [6], 42000 nM; in [9] it was 7260 nM; in data set [7], 240 nM; in data set [8] it was 180 nM. For the same compound, in data set [10], the EC50 is 7080 nM. Besides, in [4], the 50% cytotoxic concentration (CC50) at 24 h turned out to be 14500 nM.

For the compound `CC(=O)OCC(=CCP(=O)(OCOC(=O)C(C)(C)C)OCOC(=O)C(C)(C)C)COc1cc(N)nc(N)n1`, the MCC at 24 h in data set [1] came to 100 µM. For the same compound, the EC50 in data set [2] came out at 1100 nM; in data set [3], 600 nM; in data set [15], 360 nM; in data set [5], 2900 nM; in data set [6] it was 600 nM; in data set [9], 4060 nM. The 50% effective concentration (EC50) in [7] was 120 nM; in data set [8] it was 140 nM; in data set [14], 180 nM; in data set [10] it was 8560 nM. The CC50 at 24 h in data set [4] is 2030 nM.

`Nc1nc2c(ncn2COCCO)c(=O)[nH]1` [ACYCLOVIR]: the MCC at 24 h in data set [1] was over 300 µM. Also, in data set [4], the CC50 at 24 h was determined as 470000 nM. Moreover, the figures for the half-maximal effective concentration (EC50) in data set [5] and in data set [14] were over 250000 nM and 66000 nM, respectively.
